pIC50: −log10 of the molar value. Where a name gives a salt, the structure may show the parent alone.
Target: human BACE1 (Homo sapiens, UniProt P56817)
Test: Fluorescent kinetic assay: Evaluation of BACE-1 Binding Affinity of Test Compounds
Format: biochemical
Conditions: 10 nM enzyme, 25 μM substrate WABC-6, 50 mM Na-Acetate pH 4.5, room temperature
Protocol: Evaluation of BACE-1 Binding Affinity of Test Compounds
Fluorescent Kinetic Assays
Final Assay Conditions: 10 nM human BACE1 (or 10 nM Murine BACE1, 1.5 nM human BACE2), 25 μM substrate (WABC-6, MW 1549.6, from AnaSpec), Buffer: 50 mM Na-Acetate, pH 4.5, 0.05% CHAPS, 25% PBS, room temperature. Na-Acetate was from Aldrich, Cat.# 24, 124-5, CHAPS was from Research Organics, Cat. # 1304C 1×, PBS was from Mediatech (Cellgro), Cat# 21-031-CV, peptide substrate Abz[…]pa was from AnaSpec, Peptide Name: WABC-6 Determination of stock substrate (Abz[…]pa) concentration: ˜25 mM stock solution is made in DMSO using the peptide weight and MW, and diluted to ˜25 μM (1:1000) in 1×PBS. Concentration is determined by absorbance at 354 nm using an extinction coefficient ε of 18172 M^−1 cm^−1, the concentration of stock substrate is corrected, and the substrate stock stored in small aliquots in −80° C. [Substrate Stock]=ABS^354 nm*10^6/18172 (in […]) The extinction coefficient ε^354 nm was adapted from TACE peptide substrate, which had the same quencher-fluorophore pair.
Determination of Stock Enzyme Concentration: the stock concentration of each enzyme is determined by absorbance at 280 nm using an ε of 64150 M^−1 cm^−1 for hBACE1 and MuBACE1, 62870 M^−1 cm^−1 for hBACE2 in 6 M Guanidinium Hydrochloride (from Research Organics, Cat. # 5134G-2), pH ˜6. The extinction coefficient ε^280 nm for each enzyme was calculated based on known amino acid composition and published extinction coefficients for Trp ([…]) and Tyr ([…]) residues (Anal. Biochem. 182, 319-326).
Dilution and mixing steps: total reaction volume: 100 μL
2× inhibitor dilutions in buffer A(66.7 mM Na-Acetate, pH 4.5, 0.0667% CHAPS) were prepared,
4× enzyme dilution in buffer A(66.7 mM Na-Acetate, pH 4.5, 0.0667% CHAPS) were prepared,
100 μM substrate dilution in 1×PBS was prepared, and
50 μL 2× Inhibitor, 25 μL 100 μM substrate are added to each well of 96-well plate (from DYNEX Technologies, VWR #: 11311-046), immediately followed by 25 μL 4× enzyme (added to the inhibitor and substrate mix), and the fluorescence readings are initiated.
Fluorescence Readings: Readings at λex 320 nm and λem 420 nm are taken every 40 sec for 30 min at room temperature and the linear slope for substrate cleavage rate (vi) determined.
Testing at least 10 different inhibitor concentrations is preferred.

Chain of human BACE1 (P56817 46-501): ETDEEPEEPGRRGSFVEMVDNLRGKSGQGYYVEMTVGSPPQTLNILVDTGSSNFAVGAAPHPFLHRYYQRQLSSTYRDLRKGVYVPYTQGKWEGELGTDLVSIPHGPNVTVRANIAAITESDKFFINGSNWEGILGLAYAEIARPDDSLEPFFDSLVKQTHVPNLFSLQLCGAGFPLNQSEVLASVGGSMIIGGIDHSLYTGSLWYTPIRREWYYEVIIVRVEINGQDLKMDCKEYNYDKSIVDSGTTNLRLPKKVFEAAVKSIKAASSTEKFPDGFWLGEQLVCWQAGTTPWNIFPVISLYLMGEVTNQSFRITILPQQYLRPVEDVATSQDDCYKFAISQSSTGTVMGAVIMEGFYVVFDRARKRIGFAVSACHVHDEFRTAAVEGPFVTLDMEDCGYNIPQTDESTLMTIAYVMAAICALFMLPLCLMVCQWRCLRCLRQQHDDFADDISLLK

SMILES | pIC50
CN1C(=O)C(c2cccc(-c3cncnc3)c2)(c2cnn(C)c2)N=C1N (stereo not shown) [Example 1, 2-Amino-3-methyl-5-(1-methyl-1H-pyrazol-4-yl)-5-(3-pyrimidin-5-ylphenyl)-3,5-dihydro-4-imidazol-4-one] | 6.00 to 6.96
COC(=O)c1cc([C@@]2(c3ccc(F)c(-c4cccnc4F)c3)N=C(N)N(C)C2=O)cn1CCF [Example 184B, Methyl 4-{(4R)-2-amino-4-[4-fluoro-3-(2-fluoropyridin-3-yl)phenyl]-1-methyl-5-oxo-4,5-dihydro-1H-imidazol-4-yl}-1-(2-fluoroethyl)-1H-pyrrole-2-carboxylate] | 6.00 to 6.96
CCn1cc([C@@]2(c3cccc(-c4cccnc4F)c3)N=C(N)N(C)C2=O)cc1C(=O)C1CC1 [243 B] | < 6.00
CCC(=O)c1cc([C@@]2(c3cccc(-c4cccnc4F)c3)N=C(N)N(C)C2=O)cn1CCCF [255 B] | < 6.00
CCn1cc(C2(c3cccc(-c4cncc(Cl)c4)c3)N=C(N)N(C)C2=O)cn1 (stereo not shown) [Example 46, 2-Amino-5-[3-(5-chloropyridin-3-yl)phenyl]-5-(1-ethyl-1H-pyrazol-4-yl)-3-methyl-3,5-dihydro-imidazol-4-one] | 7.00 to 8.00
CCC(=O)c1cc(C2(c3cccc(-c4cccnc4F)c3)N=C(N)N(C)C2=O)cn1CCC(C)C (stereo not shown) [Example 153] | 7.00 to 8.00
CCC(=O)c1cc([C@@]2(c3cccc(-c4cccnc4F)c3)N=C(N)N(C)C2=O)cn1CCCCF [250 B] | < 6.00
CCC(=O)c1cc([C@]2(c3cccc(-c4cccnc4F)c3)N=C(N)N(C)C2=O)cn1CC1CC1 [251 A] | 7.00 to 8.00
CCC(=O)c1cc([C@]2(c3cccc(-c4cccnc4F)c3)N=C(N)N(C)C2=O)cn1CCCCF [250 A] | 7.00 to 8.00
CCn1cc([C@]2(c3cccc(-c4cccnc4F)c3)N=C(N)N(C)C2=O)cc1C=O [Example 247, 4-{(4S)-2-Amino-4-[3-(2-fluoropyridin-3-yl)phenyl]-1-methyl-5-oxo-4,5-dihydro-1H-imidazol-4-yl}-1-ethyl-1H-pyrrole-2-carbaldehyde] | 7.00 to 8.00
CCC(=O)c1cc([C@@]2(c3cccc(-c4cc(F)cnc4F)c3)N=C(N)N(C)C2=O)cn1CCF [242 B] | < 6.00
COc1ncccc1-c1cc(C2(c3ccsc3)N=C(N)N(C)C2=O)ccc1F (stereo not shown) [Example 38] | 6.00 to 6.96
CCC(=O)c1cc([C@]2(c3cccc(-c4cccnc4F)c3)N=C(N)N(C)C2=O)cn1CCCF [255 A] | 7.00 to 8.00
CN1C(=O)C(c2ccsc2)(c2ccc(F)c(-c3cccnc3F)c2)N=C1N (stereo not shown) [Example 39] | 7.00 to 8.00
CCC(=O)c1cc([C@@]2(c3cccc(-c4cccnc4F)c3)N=C(N)N(C)C2=O)cn1CC1CC1 [251 B] | < 6.00
CCn1cc(C2(c3cccc(-c4cccnc4F)c3)N=C(N)N(C)C2=O)cn1 (stereo not shown) [Example 43, 2-Amino-5-(1-ethyl-1H-pyrazol-4-yl)-5-[3-(2-fluoro-pyridin-3-yl)-phenyl]-3-methyl-3,5-dihydro-imidazol-4-one] | 7.00 to 8.00
CCC(=O)c1cc([C@@]2(c3cccc(-c4cccnc4F)c3)N=C(N)N(C)C2=O)cn1CC(F)(F)F [Example 224B, (5R)-2-amino-5-[3-(2-fluoropyridin-3-yl)phenyl]-3-methyl-5-[5-propionyl-1-(2,2,2-trifluoroethyl)-1H-pyrrol-3-yl]-3,5-dihydro-4H-imidazol-4-one] | < 6.00
COC(=O)c1cc([C@]2(c3cccc(-c4cccnc4F)c3)N=C(N)N(C)C2=O)cn1CCF [257 A] | 7.00 to 8.00
CC(C)n1cc(C#Cc2ccc(F)c(Br)c2)cn1 [Example 94, 4-(3-bromo-4-fluorophenylethynyl)-1-isopropyl-1H-pyrazole] | 7.00 to 8.00
CCC(=O)c1cc(C2(c3cccc(Br)c3)N=C(N)N(C)C2=O)cn1CCF (stereo not shown) [Example 150, 2-Amino-5-[3-bromophenyl]-5-[1-(2-fluoroethyl)-5-propionyl-1H-pyrrol-3-yl)-3-methyl-3,5-dihydro-4H-imidazol-4-one] | 6.00 to 6.96

SMILES | pIC50
COC(=O)c1cc([C@]2(c3ccc(F)c(-c4cncnc4)c3)N=C(N)N(C)C2=O)cn1CC(F)(F)F [258 A] | 7.00 to 8.00
CCCn1cc([C@]2(c3cccc(-c4cccnc4F)c3)N=C(N)N(C)C2=O)cc1C(=O)CC [254 A] | 7.00 to 8.00
CCC(=O)c1cc([C@]2(c3cccc(-c4cccnc4F)c3)N=C(N)N(C)C2=O)cn1CC(F)F [253 A] | 7.00 to 8.00
CCC(=O)c1cc([C@]2(c3cccc(-c4cccnc4F)c3)N=C(N)N(C)C2=O)cn1CC(F)(F)F [Example 224A, (5S)-2-amino-5-[3-(2-fluoropyridin-3-yl)phenyl]-3-methyl-5-[5-propionyl-1-(2,2,2-trifluoroethyl)-1H-pyrrol-3-yl]-3,5-dihydro-4H-imidazol-4-one] | 7.00 to 8.00
CCn1cc(C2(c3cncnc3)N=C(N)N(C)C2=O)cn1 (stereo not shown) [Example 42, 2-Amino-5-(1-ethyl-1H-pyrazol-4-yl)-3-methyl-5-(3-pyrimidin-5-yl)-3,5-dihydro-4H-imidazol-4-one] | 7.00 to 8.00
CCC(=O)c1cc([C@@]2(c3cccc(-c4cccnc4F)c3)N=C(N)N(C)C2=O)cs1 [244 B] | 6.00 to 6.96
COc1ccc(C2(c3cc(-c4ccc(F)cc4)cs3)N=C(N)N(C)C2=O)cc1C (stereo not shown) [Example 111, 2-Amino-5-[4-(4-fluorophenyl)thien-2-yl]-5-(4-methoxy-3-methylphenyl)-3-methyl-3,5-dihydro-4H-imidazol-4-one] | 6.00 to 6.96
CCn1cc([C@@]2(c3cccc(-c4cccnc4F)c3)N=C(N)N(C)C2=O)cn1 [Example 44A, (5R)-2-Amino-5-(1-ethyl-1H-pyrazol-4-yl)-5-[3-(2-fluoropyridin-3-yl)phenyl]-3-methyl-3,5-dihydro-4H-imidazol-4-one] | < 6.00
CCC(=O)c1cc([C@@]2(c3ccc(F)c(-c4cccnc4F)c3)N=C(N)N(C)C2=O)cn1CC [Example 183B, (5R)-2-Amino-5-(1-ethyl-5-propionyl-1H-pyrrol-3-yl)-5-[4-fluoro-3-(2-fluoropyridin-3-yl)phenyl]-3-methyl-3,5-dihydro-4H-imidazol-4-one] | < 6.00
CCn1cc(C2(c3cccc(-c4cncc(F)c4)c3)N=C(N)N(C)C2=O)cn1 (stereo not shown) [Example 45, 2-Amino-5-(1-ethyl-1H-pyrazol-4-yl)-5-[3-(5-fluoro-pyridin-3-yl)-phenyl]-3-methyl-3,5-dihydro-imidazol-4-one] | 7.00 to 8.00
CCn1cc(C2(c3cccc(-c4cccnc4F)c3)N=C(N)N(C)C2=O)cc1/C=N/OC (stereo not shown) [Example 241, 4-[2-Amino-4-[3-(2-fluoropyridin-3-yl)phenyl]-1-methyl-5-oxo-4,5-dihydro-1H-imidazol-4-yl]-1-ethyl-1H-pyrrole-2-carbaldehyde O-methyloxime hydrochloride] | 7.00 to 8.00
CCC(=O)c1cc([C@]2(c3cccc(-c4cccnc4F)c3)N=C(N)N(C)C2=O)cn1CCCC(F)(F)F [252 A] | 7.00 to 8.00
CCC(=O)c1cc(C2(c3cccc(-c4cccnc4F)c3)N=C(N)N(C)C2=O)c[nH]1 (stereo not shown) [Example 154] | 7.00 to 8.00
CCC(=O)c1cc([C@]2(c3cccc(-c4cccnc4F)c3)N=C(N)N(C)C2=O)cs1 [244 A] | 7.00 to 8.00
CCCCc1ccc(C2(c3ccccc3)N=C(N)N(C)C2=O)s1 (stereo not shown) [Example 109, 2-Amino-5-(5-butylthien-2-yl)-3-methyl-5-phenyl-3,5-dihydro-4H-imidazol-4-one] | < 6.00
CCC(=O)c1cc([C@]2(c3cccc(-c4cccnc4F)c3)N=C(N)N(C)C2=O)cn1CCF [256 A] | 7.00 to 8.00
CCn1cc([C@]2(c3cccc(-c4cccnc4F)c3)N=C(N)N(C)C2=O)cc1C(=O)C1CC1 [243 A] | 7.00 to 8.00
CCn1cc([C@]2(c3cccc(-c4cccnc4F)c3)N=C(N)N(C)C2=O)cn1 [Example 44B, (5S)-2-Amino-5-(1-ethyl-1H-pyrazol-4-yl)-5-[3-(2-fluoropyridin-3-yl)phenyl]-3-methyl-3,5-dihydro-4H-imidazol-4-one] | 7.00 to 8.00
COC(=O)c1cc([C@@]2(c3cccc(-c4cccnc4F)c3)N=C(N)N(C)C2=O)cn1CCF [257 B] | 6.00 to 6.96
CCC(=O)c1cc(C2(c3cccc(-c4cc(F)cnc4F)c3)N=C(N)N(C)C2=O)cn1CCF (stereo not shown) [Example 151, 2-Amino-5-[3-(2,5-difluoropyridin-3-yl)phenyl]-5-[1-(2-fluoro-ethyl)-5-propionyl-1H-pyrrol-3-yl)-3-methyl-3,5-dihydro-4H-imidazol-4-one] | 7.00 to 8.00

— patent US7705030B2, “Amino-5-(5-membered)hetero-arylimidazolone compounds and the use thereof for β-secretase modulation” (Wyeth LLC, priority 2005, dated 2010)
